{"source": "patent US6864056B1", "about": "(priority 2000, dated 2005)", "test_system": "dAU6 NH3 oligonucleotide substrate", "type": "biochemical"}
{"substance": "gelonin", "values": [{"measurement": "level of activity (fluorescence normalized with negative control, FIG. 3)", "value": "highest level of activity"}]}
